Tests used:
[1] = target: T1, COS-7/AMY3 (human calcitonin receptor (CTR) and RAMP3) (Homo sapiens, UniProt O60896+P30988); assay: Amylin Receptor cAMP Assay II; assay type: cell-based; conditions: values marked **: Amylin Receptor cAMP Assay II; COS-7/AMY3 cells, cAMP dynamic 2 kit, 30 min; read-out: Amylin Receptor cAMP Stimulation Activity: EC50
T1 construct: expressed in transfected cells; host or cells: COS-7
How it was run: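 COS-7 cells stably co-expressing human CTR and RAMP3 (AMY3), 2000 cells/well in HBSS with 20 mM HEPES, 0.5 mM IBMX, 0.1% casein, stimulated with compound for 30 min at 37 °C. cAMP measured by HTRF (665/615 nm), activity normalized between vehicle and maximal control.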

[2] = target: T2, human calcitonin receptor (CTR) (Homo sapiens, UniProt P30988); assay: Calcitonin Receptor (CTR) cAMP Assay; assay type: cell-based; conditions: COS7-human CTR Clone #2 stable cell line, cAMP dynamic 2 kit, 30 min; read-out: Calcitonin Receptor cAMP Stimulation Activity: EC50
T2 construct: expressed in transfected cells; host or cells: COS-7 (COS7-human CTR Clone #2)
T2 sequence (P30988 25-474): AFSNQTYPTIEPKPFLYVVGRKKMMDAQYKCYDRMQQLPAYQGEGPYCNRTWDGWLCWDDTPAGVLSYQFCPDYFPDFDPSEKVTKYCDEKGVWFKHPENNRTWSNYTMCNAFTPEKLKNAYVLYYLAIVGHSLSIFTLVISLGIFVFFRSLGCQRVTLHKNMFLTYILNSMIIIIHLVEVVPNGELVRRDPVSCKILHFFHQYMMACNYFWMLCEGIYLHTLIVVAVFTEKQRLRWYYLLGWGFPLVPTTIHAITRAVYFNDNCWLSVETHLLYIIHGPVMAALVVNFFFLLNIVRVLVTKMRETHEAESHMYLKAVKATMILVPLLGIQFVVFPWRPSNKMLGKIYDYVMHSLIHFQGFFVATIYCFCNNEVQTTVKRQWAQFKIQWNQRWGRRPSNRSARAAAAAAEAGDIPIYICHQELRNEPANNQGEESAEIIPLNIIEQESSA
How it was run: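 COS-7 cells stably expressing human CTR (2000 cells/well) were incubated 30 min at 37 °C with 4-fold serially diluted compound in HBSS/20 mM HEPES/0.5 mM IBMX/0.1% casein. cAMP was detected by HTRF (665/615 nm) after 1 h at RT. % activity was normalised to vehicle and positive controls.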

T1 sequence (O60896 24-148, one chain of several): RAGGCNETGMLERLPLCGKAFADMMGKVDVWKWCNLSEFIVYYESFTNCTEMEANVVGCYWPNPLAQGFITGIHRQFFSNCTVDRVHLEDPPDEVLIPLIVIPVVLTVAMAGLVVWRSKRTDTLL

SMILES	EC50 [1] [nM]	EC50 [2] [nM]
COc1cccc2c1CC[C@H]2Nc1nccc2cc(-c3c4c(nc(CCc5ccc(-n6cccn6)cc5)c3-c3n[nH]c(=O)o3)[C@@H]3CCCN3C4=O)sc12 [Compound 243, 5-((S)-2-(4-(1H-pyrazol-1-yl)phenethyl)-4-(7-(((R)-4-methoxy-2,3-dihydro-1H-inden-1-yl)amino)thieno[2,3-c]pyridin-2-yl)-5-oxo-7,8,9,9a-tetrahydro-5H-pyrido[2,3-a]pyrrolizin-3-yl)-1,3,4-oxadiazol-2(3H)-one]	11.2	1.18
COc1ccc(CCc2nc3c(c(-c4cc5ccnc(N[C@@H]6CCc7c(OC)cccc76)c5s4)c2-c2n[nH]c(=O)o2)C(=O)N2CCC[C@@H]32)cc1F [Compound 244, 5-((S)-2-(3-fluoro-4-methoxyphenethyl)-4-(7-(((R)-4-methoxy-2,3-dihydro-1H-inden-1-yl)amino)thieno[2,3-c]pyridin-2-yl)-5-oxo-7,8,9,9a-tetrahydro-5H-pyrido[2,3-a]pyrrolizin-3-yl)-1,3,4-oxadiazol-2(3H)-one]	22.7	1.16
COc1cccc2c1CC[C@H]2Nc1nccc2cc(-c3c4c(nc(CCc5cc(F)cs5)c3-c3n[nH]c(=O)o3)[C@@H]3CCCN3C4=O)sc12 [Compound 245, 5-((S)-2-(2-(4-fluorothiophen-2-yl)ethyl)-4-(7-(((R)-4-methoxy-2,3-dihydro-1H-inden-1-yl)amino)thieno[2,3-c]pyridin-2-yl)-5-oxo-7,8,9,9a-tetrahydro-5H-pyrido[2,3-a]pyrrolizin-3-yl)-1,3,4-oxadiazol-2(3H)-one]	19.1	0.469
O=C1c2c(nc(CCc3ccc(F)cc3)c(-c3n[nH]c(=O)o3)c2-c2cc3ccnc(N[C@@H]4CCc5ccc(F)cc54)c3s2)[C@@H]2CCCN12 [Compound 246, 5-((S)-4-(7-(((R)-6-fluoro-2,3-dihydro-1H-inden-1-yl)amino)thieno[2,3-c]pyridin-2-yl)-2-(4-fluorophenethyl)-5-oxo-7,8,9,9a-tetrahydro-5H-pyrido[2,3-a]pyrrolizin-3-yl)-1,3,4-oxadiazol-2(3H)-one]	6.78	0.219
O=C1c2c(nc(CCc3ccc(F)cc3)c(-c3n[nH]c(=O)o3)c2-c2cc3ccnc(N[C@@H]4CCc5nc(C(F)(F)F)ccc54)c3s2)[C@@H]2CCCN12 [Compound 247, 5-((S)-2-(4-fluorophenethyl)-5-oxo-4-(7-(((R)-2-(trifluoromethyl)-6,7-dihydro-5H-cyclopenta[b]pyridin-5-yl)amino)thieno[2,3-c]pyridin-2-yl)-7,8,9,9a-tetrahydro-5H-pyrido[2,3-a]pyrrolizin-3-yl)-1,3,4-oxadiazol-2(3H)-one]	2410	21.1
O=C1c2c(nc(CCc3ccc(F)cc3)c(-c3n[nH]c(=O)o3)c2-c2cc3ccnc(Cc4coc5ccccc45)c3s2)[C@@H]2CCCN12 [Compound 248, (S)-5-(4-(7-(benzofuran-3-ylmethyl)thieno[2,3-c]pyridin-2-yl)-2-(4-fluorophenethyl)-5-oxo-7,8,9,9a-tetrahydro-5H-pyrido[2,3-a]pyrrolizin-3-yl)-1,3,4-oxadiazol-2(3H)-one]	4200	102
Cn1cc(Cc2nccc3cc(-c4c5c(nc(CCc6ccc(F)cc6)c4-c4n[nH]c(=O)o4)[C@@H]4CCCN4C5=O)sc23)c2ccccc21 [Compound 249, (S)-5-(2-(4-fluorophenethyl)-4-(7-((1-methyl-1H-indol-3-yl)methyl)thieno[2,3-c]pyridin-2-yl)-5-oxo-7,8,9,9a-tetrahydro-5H-pyrido[2,3-a]pyrrolizin-3-yl)-1,3,4-oxadiazol-2(3H)-one]	62800	857
COc1cccc2c1CC[C@H]2Nc1nccc2cc(-c3c4c(nc(C[C@@H]5CCc6cc(F)ccc65)c3-c3n[nH]c(=O)o3)[C@@H]3CCCN3C4=O)sc12 [Compound 250, 5-((S)-2-(((S)-5-fluoro-2,3-dihydro-1H-inden-1-yl)methyl)-4-(7-(((R)-4-methoxy-2,3-dihydro-1H-inden-1-yl)amino)thieno[2,3-c]pyridin-2-yl)-5-oxo-7,8,9,9a-tetrahydro-5H-pyrido[2,3-a]pyrrolizin-3-yl)-1,3,4-oxadiazol-2(3H)-one]	102	4.5
COc1cccc2c1CC(F)(F)[C@@H]2Nc1nccc2cc(-c3c4c(nc(CCc5ccc(F)cc5)c3-c3n[nH]c(=O)o3)[C@@H]3CCCN3C4=O)sc12 [Compound 251, 5-((S)-4-(7-(((R)-2,2-difluoro-4-methoxy-2,3-dihydro-1H-inden-1-yl)amino)thieno[2,3-c]pyridin-2-yl)-2-(4-fluorophenethyl)-5-oxo-7,8,9,9a-tetrahydro-5H-pyrido[2,3-a]pyrrolizin-3-yl)-1,3,4-oxadiazol-2(3H)-one]	82.8	7.28
CC(c1ccc(C#N)cn1)N1C(=O)C(C)(C)Oc2cc(-c3c4c(nc(CCc5ccc(F)cc5)c3-c3n[nH]c(=O)o3)[C@@H]3CCCN3C4=O)ccc21 (stereo partly drawn) [Compound 252, 6-(1-(7-((S)-2-(4-fluorophenethyl)-5-oxo-3-(5-oxo-4,5-dihydro-1,3,4-oxadiazol-2-yl)-7,8,9,9a-tetrahydro-5H-pyrido[2,3-a]pyrrolizin-4-yl)-2,2-dimethyl-3-oxo-2H-benzo[b][1,4]oxazin-4(3H)-yl)ethyl)nicotinonitrile]	248	7.9
Cc1cc2cc(-c3c4c(nc(CCc5ccc(F)cc5)c3-c3n[nH]c(=O)o3)[C@@H]3CCCN3C4=O)sc2c(N[C@@H]2CCc3cc(F)c(F)cc32)n1 [Compound 253, 5-((S)-4-(7-(((R)-5,6-difluoro-2,3-dihydro-1H-inden-1-yl)amino)-5-methylthieno[2,3-c]pyridin-2-yl)-2-(4-fluorophenethyl)-5-oxo-7,8,9,9a-tetrahydro-5H-pyrido[2,3-a]pyrrolizin-3-yl)-1,3,4-oxadiazol-2(3H)-one]	1.88	0.0708
Cc1cc2cc(-c3c4c(nc(CCc5ccc(F)cc5)c3-c3n[nH]c(=O)o3)[C@@H]3COCCN3C4=O)sc2c(N[C@@H]2CCc3cc(F)c(F)cc32)n1 [Compound 254, (R)-4-(7-(((R)-5,6-difluoro-2,3-dihydro-1H-inden-1-yl)amino)-5-methylthieno[2,3-c]pyridin-2-yl)-2-(4-fluorophenethyl)-3-(5-oxo-4,5-dihydro-1,3,4-oxadiazol-2-yl)-7,8,10,10a-tetrahydro-5H-pyrido[2′,3′:3,4]pyrrolo[2,1-c][1,4]oxazin-5-one]	0.707	0.0659
Cc1cc2cc(-c3c4c(nc(CCc5ccc(F)cc5)c3-c3n[nH]c(=O)o3)C35CC(CN3C4=O)C5)sc2c(N[C@@H]2CCc3cc(F)c(F)cc32)n1 [Compound 255, (R)-5-(4-(7-((5,6-difluoro-2,3-dihydro-1H-inden-1-yl)amino)-5-methylthieno[2,3-c]pyridin-2-yl)-2-(4-fluorophenethyl)-5-oxo-8,9-dihydro-5H,7H-8,9a-methanopyrido[2,3-a]pyrrolizin-3-yl)-1,3,4-oxadiazol-2(3H)-one]	0.318	0.0127
COc1c(Cl)cc2c(c1F)CC[C@H]2Nc1nccc2cc(-c3c4c(nc(CCc5ccc(F)cc5)c3-c3n[nH]c(=O)o3)[C@@H]3CCCN3C4=O)sc12 [Compound 256, 5-[(9aS)-4-[7-[[(1R)-6-chloro-4-fluoro-5-methoxy-indan-1-yl]amino]thieno[2,3-c]pyridin-2-yl]-2-[2-(4-fluorophenyl)ethyl]-5-oxo-7,8,9,9a-tetrahydropyrido[2,3-a]pyrrolizin-3-yl]-3H-1,3,4-oxadiazol-2-one]	12.8	0.33
COc1cc2c(cc1F)[C@H](Nc1nccc3cc(-c4c5c(nc(CCc6ccc(F)cc6)c4-c4n[nH]c(=O)o4)[C@@H]4CCCN4C5=O)sc13)CC2 [Compound 257, 5-((S)-4-(7-(((R)-6-fluoro-5-methoxy-2,3-dihydro-1H-inden-1-yl)amino)thieno[2,3-c]pyridin-2-yl)-2-(4-fluorophenethyl)-5-oxo-7,8,9,9a-tetrahydro-5H-pyrido[2,3-a]pyrrolizin-3-yl)-1,3,4-oxadiazol-2(3H)-one]	10.2	0.696
COc1cc(F)cc2c1CC[C@H]2Nc1nccc2cc(-c3c4c(nc(CCc5ccc(F)cc5)c3-c3n[nH]c(=O)o3)[C@@H]3CCCN3C4=O)sc12 [Compound 258, 5-((S)-4-(7-(((R)-6-fluoro-4-methoxy-2,3-dihydro-1H-inden-1-yl)amino)thieno[2,3-c]pyridin-2-yl)-2-(4-fluorophenethyl)-5-oxo-7,8,9,9a-tetrahydro-5H-pyrido[2,3-a]pyrrolizin-3-yl)-1,3,4-oxadiazol-2(3H)-one]	1.91	0.171

Source: patent publication US12486269B2 (Aconcagua Bio, Inc., priority 2024, dated 2025)
